Experimental data published in patent US20260325520A1, “METHODS FOR TREATING OR PREVENTING NEUROENDOCRINE TUMR FORMATION USING CDC7 INHIBITORS” (Memorial Sloan-Kettering Cancer Center, priority 2022, published 2026).

Columns and labels:
Type in all cases: cell-based
[1] = test system: SCLC cell lines; assay: Growth inhibition of SCLC cell lines by CDC7 inhibitors, correlation with CDC7 mRNA and protein expression; conditions: array of SCLC cell lines, Spearman's test
Description: FIG. 1A: CDC7 mRNA expression in cell lines derived from different tumor types. The data was obtained from CCLE through UCSC Xenabrowser portal (https://xenabrowser.net/) in December 2020. Lines indicate the median CDC7 mRNA expression in SCLC cell lines. FIG. 1B: CDC7 protein expression assessed by IHC in NSCLC (N=58) and SCLC (N=45) clinical samples. Protein expression is shown as IHC score. H-score medians and standard deviation are shown. FIG. 1C: Western blot showing CDC7 KO in H82 (SCLC-N) and H146 (SCLC-A) SCLC cell lines. Proliferation (FIG. 1D) and soft agar colony formation (FIG. 1E) assays in isogenic H82 and H146 cell lines with CDC7 KO. In FIG. 1D, lower line graphs correspond to CDC7 KO (sgCDC7). FIG. 1F: Ectopic overexpression of CDC7 in H69 (SCLC-A) and DMS114 (SCLC-Y) SCLC cell lines. Proliferation (FIG. 1G) and soft agar colony formation (FIG. 1H) assays in isogenic H69 and DMS114 cell lines with ectopic CDC7 overexpression. […] FIG. 1I: Bivariate correlation of CDC7 mRNA and protein expression with simurosertib or LY3143921 sensitivity (assessed as growth inhibition) in an array of SCLC cell lines. Correlation was calculated with Spearman's test. […]
Cytotoxic assays were performed as described in ^19. […] Viability was assessed with the CellTiter-Glo 2.0 Assay (Promega, G9242) as indicated by manufacturer. […]

[2] = test system: H1563 (LUAD) cells; assay: Viability of control and TP53/RB1-loss H1563 cells treated with simurosertib; conditions: 0.5 μM; double TP53/RB1 loss versus control or single gene loss
Description: (§1) CDC7 mRNA (FIG. 3A) and protein (FIG. 3B) expression in lung tumor clinical specimens, categorized as control never transformed adenocarcinomas (LUAD), transforming adenocarcinomas (T-LUAD) and small cell carcinomas (T-SCLC) and control de novo small cell carcinomas (SCLC). For FIG. 3B, H-score medians and standard deviation are shown. FIG. 3C: CDC7 mRNA expression in PRAD tumors with or without NE features. Data from Abida et al., PNAS 2019. FIG. 3D: CDC7 protein expression in PRAD and NEPC clinical specimens, as assessed by IHC. H-score medians and standard deviation and representative images (FIG. 3E) are shown. […] FIG. 3G: In vivo treatment of Lx1042 (T-SCLC) and LuCAP49 (NEPC) PDXs was conducted to compare the efficacy of the combination of cisplatin and simurosertib versus that of cisplatin and etoposide. Student's t-test was performed to assess statistical significance (two-tailed, assuming heterogeneous value distribution) p-value legend: *<0.05, **<0.01, ***<0.001. FIG. 3H: CDC7 mRNA expression in adenocarcinoma clinical specimens, categorized by their TP53/RB1 status. Data obtained from LUAD TCGA (PanCancer), LUAD OncoSG (OncoSG, Nat Genetics 2020) and PRAD TCGA (PanCancer). […]
(§2) Cytotoxic assays were performed as described in ^19. […] Viability was assessed with the CellTiter-Glo 2.0 Assay (Promega, G9242) as indicated by manufacturer.

[3] = test system: 22PC (PRAD) cells; assay: Viability of control and TP53/RB1-loss 22PC cells treated with simurosertib; conditions: 0.5 μM; double TP53/RB1 loss versus control or single gene loss
Description: as §1, §2

Q: What does the source list for `Cc1n[nH]cc1-c1cc2nc([C@@H]3CC4CCN3CC4)[nH]c(=O)c2s1` [simurosertib]?
A: sensitivity correlation with CDC7 mRNA and protein expression [1]: correlated with CDC7 mRNA and protein expression; simurosertib sensitivity [2]: increased simurosertib sensitivity; simurosertib sensitivity [3]: increased simurosertib sensitivity
